Structures can show the parent of a compound that is named as a salt.
Biological target: HPK1 (Homo sapiens (Human), UniProt Q92918)
Assay: HPK1 biochemical enzyme assay (microfluidic mobility shift assay)
Conditions: 1.5 nM HPK1, ATP 1 mM final, 30 min preincubation, 60 min at RT, Caliper EZ Reader; read-out: HPK1 1000UMATP caliper IC50
How it was run: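 Mobility shift readout of HPK1 activity after a 60 min RT reaction with 1 mM ATP, 1 μM substrate and 5 mM MgCl2. Enzyme/substrate mix was first exposed to compounds for 30 min, using ten-point curves topping at 3 μM final.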

Chain of HPK1 (Q92918 whole entry): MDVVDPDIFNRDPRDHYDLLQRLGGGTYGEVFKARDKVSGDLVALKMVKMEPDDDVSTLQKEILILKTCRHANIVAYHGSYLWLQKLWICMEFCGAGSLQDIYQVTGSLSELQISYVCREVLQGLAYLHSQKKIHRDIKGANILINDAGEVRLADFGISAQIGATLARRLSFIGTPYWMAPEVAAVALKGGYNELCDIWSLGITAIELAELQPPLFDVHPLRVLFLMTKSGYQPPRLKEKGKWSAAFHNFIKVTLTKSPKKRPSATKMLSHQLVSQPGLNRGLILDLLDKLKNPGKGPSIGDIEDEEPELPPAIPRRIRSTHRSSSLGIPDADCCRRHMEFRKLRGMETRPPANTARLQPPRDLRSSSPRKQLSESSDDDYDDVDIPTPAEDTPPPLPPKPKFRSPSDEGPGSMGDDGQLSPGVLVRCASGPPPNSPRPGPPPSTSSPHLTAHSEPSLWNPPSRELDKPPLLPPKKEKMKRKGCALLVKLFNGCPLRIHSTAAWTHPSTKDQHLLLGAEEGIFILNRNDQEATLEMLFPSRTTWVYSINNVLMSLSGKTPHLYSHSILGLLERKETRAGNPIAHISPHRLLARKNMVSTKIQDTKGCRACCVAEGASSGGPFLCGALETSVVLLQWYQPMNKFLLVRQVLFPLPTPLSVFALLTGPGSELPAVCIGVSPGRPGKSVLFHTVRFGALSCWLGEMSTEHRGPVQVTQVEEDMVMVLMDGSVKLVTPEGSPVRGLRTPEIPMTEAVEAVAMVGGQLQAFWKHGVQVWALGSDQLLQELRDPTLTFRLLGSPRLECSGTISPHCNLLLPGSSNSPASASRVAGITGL

Row | Compound | IC50
1 | Cc1ccn2c(-c3ccc(Nc4ccc(CN5CCN(C)CC5)cn4)c4c3CNC4=O)cnc2c1F [I-605, 4-(8-fluoro-7-methylimidazo [1,2-a]pyridin-3-yl)-7-((5-((4-methylpiperazin-1-yl)methyl)pyri-din-2-yl)amino)isoin-dolin-1-one] | < 100 nM
2 | CN[C@H]1CCN(c2cccc(Nc3cnc(-c4ccnc5c4ccn5C)c4c3C(=O)NC4)n2)C1 [I-245, 7-[[6-[(3S)-3-(methylamino)pyrrolidin-1-yl]-2-pyridyl]amino]-4-(1-methylpyrrolo [2,3-b]pyridin-4-yl)-2,3-dihydropyrrolo [3,4-c]pyridin-1-one] | < 100 nM
3 | CN1CCN(CC2(O)CCN(c3ccc(Nc4ccc(-c5cnc6cnccn56)c5c4C(=O)NC5)nc3)CC2)CC1 [I-412, 7-((5-(4-hydroxy-4-((4-methylpiperazin-1-yl)methyl)piper-idin-1-yl)pyridin-2-yl)amino)-4-(imidazo[1,2-a]pyrazin-3-yl)isoindolin-1-one] | < 100 nM
4 | Cc1cc2[nH]cc(-c3ccc(Nc4ccc(N5CCN(C)CC5)cn4)c4c3CNC4=O)c2cn1 [I-37, 7-[[5-(4-methylpiperazin-1-yl)-2-pyridyl]amino]-4-(6-methyl-1H-pyrrolo[3,2-c]pyridin-3-yl)isoindolin-1-one] | < 100 nM
5 | Cn1ccc2c(-c3ncc(Nc4cccc(N5CCNCC5)n4)c4c3CNC4=O)ccnc21 [I-232, 4-(1-methylpyrrolo [2,3-b]pyridin-4-yl)-7-[(6-piperazin-1-yl-2-pyridyl)amino]-2,3-dihydropyrrolo [3,4-c]pyridin-1-one] | < 100 nM
6 | CC(C)(O)[C@H]1CN(c2ccc(Nc3cnc(-c4cnc5ccccn45)c4c3C(=O)NC4)nc2)CCO1 [I-470, 7-[[5-[(2R)-2-(1-hydroxy-1-methyl-ethyl)morpholin-4-yl]-2-pyridyl]amino]-4-imidazo[1,2-a]pyridin-3-yl-2,3-dihydropyrrolo [3,4-c]pyridin-1-one] | > 1000 nM
7 | CN(C)CCN1CCC(c2ccc(Nc3ccc(-c4cnc5cc(F)ccn45)c4c3C(=O)NC4)nc2)CC1=O (centres unmarked) [I-406, 7-((5-(1-(2-(dimethylami-no)ethyl)-2-oxopiperidin-4-yl)pyridin-2-yl)amino)-4-(7-fluoroimidazo [1,2-a]pyridin-3-yl)isoindolin-1-one] | < 100 nM
8 | Cn1ccc2c(-c3ccc(Nc4ccc(N5CCC6(CC5)COC6)cn4)c4c3CNC4=O)ccnc21 [I-299] | < 100 nM
9 | Cn1ccc2c(-c3ncc(Nc4ccc([C@@H]5CCOC5)c(CN)n4)c4c3CNC4=O)ccnc21 [I-836, (S)-7-((6-(aminomethyl)-5-(THF-3-yl)pyridin-2-yl)amino)-4-(1-methyl-1H-pyrrolo[2,3-b]pyridin-4-yl)-2,3-dihydro-1H-pyrrolo[3,4-c]pyridin-1-one] | < 100 nM
10 | (R)-7-((6- ((dimethylamino)- methyl)-5-(2- (methoxymeth- yl)morpholino )pyridin-2- yl)amino)-4-(7- fluoroimidazo [1,2-a]pyridin- 3-yl)isoindolin- 1-one [I-711] | < 100 nM
11 | CN1CCN(c2ccc(Nc3ccc(-c4ccnc5c4ccn5C)c4c3C(=O)NC4)nc2)CC1 [I-33, 7-[[5-(4-methylpiperazin-1-yl)-2-pyridyl]amino]-4-(1-methylpyrrolo [2,3-b]pyridin-4-yl)isoindolin-1-one] | < 100 nM
12 | Cn1ccc2c(-c3ncc(Nc4ccc(N5CCC(O)(CN6CCOCC6)CC5)cn4)c4c3CNC4=O)ccnc21 [I-343, 7-((5-(4-hydroxy-4-(morpholinomethyl)piperidin-1-yl)pyridin-2-yl)amino)-4-(1-methyl-1H-pyrrolo[2,3-b]pyridin-4-yl)-2,3-dihydro-1H-pyrrolo[3,4-c]pyridin-1-one] | < 100 nM
13 | COc1cc(Nc2cnc(-c3ccnc4c3ccn4C)c3c2C(=O)NC3)nc(N2CC[C@H]3CNC[C@H]32)c1 [I-681, 7-((6-((3aS, 6aS)-hexahydropyrrolo[3,4-b]pyrrol-1(2H)-yl)-4-methoxypyridin-2-yl)amino)-4-(1-methyl-1H-pyrrolo[2,3-b]pyridin-4-yl)-2,3-dihydro-1H-pyrrolo[3,4-c]pyridin-1-one] | < 100 nM
14 | Cc1ccn2c(-c3ncc(Nc4ccc(N5CCN(C)CC5)cn4)c4c3CNC4=O)cnc2c1 [I-73, 4-(7-methylimidazo [1,2-a]pyridin-3-yl)-7-[[5-(4-methylpiperazin-1-yl)-2-pyridyl]-amino]-2,3-dihydropyrrolo [3,4-c]pyridin-1-] | < 100 nM
15 | O=C1NCc2c(-c3cnc4cc(F)ccn34)ccc(Nc3ccc([C@H]4CCOC4)c(CN4CCC[C@@H]4CO)n3)c21 [I-825, 4-(7-fluoroimidazo [1,2-a]pyridin-3-yl)-7-((6-(((R)-2-(hydroxymeth-yl)pyrrolidin-1-yl]methyl)-5-((R)-THF-3-yl)pyridin-2-yl)amino)isoin-dolin-1-one] | < 100 nM
16 | CN1CCN(c2cccc(Nc3cnc(-c4cnc5ccccn45)c4c3C(=O)NC4)n2)CC1 [I-451, 4-imidazo[1,2-a]pyridin-3-yl-7-[[6-(4-methylpiperazin-1-yl)-2-pyridyl]amino]-2,3-dihydropyrrolo [3,4-c]pyridin-1-one Bis formate] | < 100 nM
17 | Cc1cccc2c(-c3ncc(Nc4ccc(N5CCN(C)CC5)cn4)c4c3CNC4=O)c[nH]c12 [I-5, 4-(7-methyl-1H-indol-3-yl)-7-[[5-(4-methylpiperazin-1-yl)-2-pyridyl]amino]-2,3-dihydropyrrolo [3,4-c]pyridin-1-one] | 100 to 1000 nM
18 | CC1(C)CNCCN1Cc1ccc(Nc2ccc(-c3cnc4c(F)c(C(F)F)ccn34)c3c2C(=O)NC3)nc1 [I-655, 4-(7-(difluoromethvl)-8-fluoroimidazo [1,2-a]pyridin-3-yl)-7-((5-((2,2-dimethylpiperazin-1-yl)methyl)pyridin-2-yl)amino)isoin-dolin-1-one] | < 100 nM
19 | C[C@@H](c1ccc(Nc2ccc(-c3cnc4cc(F)ccn34)c3c2C(=O)NC3)nc1)N(C)C [I-520, (S)-7-((5-(1-(dimethylami-no)ethyl)pyridin-2-yl)amino)-4-(7-fluoroimidazo [1,2-a]pyridin-3-yl)isoindolin-1-one] | < 100 nM

Results, then the compound that gave them:

Row | IC50 | Compound
20 | < 100 nM | O=C1NCc2c(-c3cnc4cc(F)ccn34)ccc(Nc3ccc(N4CCO[C@H](Cn5ccnc5)C4)cn3)c21 [I-512, 4-(7-fluoroimidazo [1,2-a]pyridin-3-yl)-7-[[5-[(2S)-2-(imidazol-1-ylmethyl)mor-pholin-4-yl]-2-pyridyl]amino] isoindolin-1-one]
21 | 100 to 1000 nM | Cc1cnc2c(-c3ccc(Nc4ccc(N5CCC(O)CC5)cn4)c4c3CNC4=O)cccn12 [I-215, 7-[[5-(4-hydroxy-1-piperidyl)-2-pyridyl]-amino]-4-(3-methylimidazo [1,2-a]pyridin-8-yl)isoindolin-1-one]
22 | < 100 nM | C[C@H](O)[C@@H]1CCCN(c2ccc(Nc3ccc(-c4cnc5cc(F)ccn45)c4c3C(=O)NC4)nc2)C1 (stereo in doubt) [I-363, 4-(7-fluoroimidazo [1,2-a]pyridin-3-yl)-7-((5-((S)-3-((R)-1-hydroxyethyl)piperidin-1-yl)pyridin-2-yl)amino)isoin-dolin-1-one]
23 | < 100 nM | Cc1ccn2c(-c3ccc(Nc4ccc([C@@H]5CCOC5)cn4)c4c3CNC4=O)cnc2c1 [I-192, (S)-4-(7-methylimidazo [1,2-a]pyridin-3-yl)-7-((5-(tetrahydro-furan-3-yl)pyridin-2-yl)amino)isoin-dolin-1-one]
24 | < 100 nM | CN(C)C(C)(C)C1CCCN(c2ccc(Nc3ccc(-c4cnc5cc(F)ccn45)c4c3C(=O)NC4)nc2)C1 (centres unmarked) [I-582, 7-((5-(3-(2-(dimethylami-no)propan-2-yl)piperidin-1-yl)pyridin-2-yl)amino)-4-(7-fluoroimidazo [1,2-a]pyridin-3-yl)isoindolin-1-one]
25 | < 100 nM | O=C1NCc2c(-c3cnc4cc(F)ccn34)ccc(Nc3ccc(N4CC[C@H](O)[C@@H](F)C4)cn3)c21 [I-400, 7-((5-((3S, 4S)-3-fluoro-4-hydroxy-piperidin-1-yl)pyridin-2-yl)amino)-4-(7-fluoroimidazo [1,2-a]pyridin-3-yl)isoindolin-1-one]
26 | < 100 nM | O=C1NCc2c(-c3cnc4cc(F)ccn34)ccc(Nc3ccc([C@H]4CCOC4)cn3)c21 [I-218, (R)-4-(7-fluoroimidazo [1,2-a]pyridin-3-yl)-7-((5-(tetrahydrofuran-3-yl)pyridin-2-yl)amino)isoin-dolin-1-one]
27 | < 100 nM | O=C1NCc2c(-c3cnc4cnccn34)ccc(Nc3ccc(N4CC(O)C4)cn3)c21 [I-315, 7-((5-(3-hydroxyazeti-din-1-yl)pyridin-2-yl)amino)-4-(imidazo[1,2-a]pyrazin-3-yl)isoindolin-1-one]
28 | < 100 nM | Cc1cccn2c(-c3ccc(Nc4ccc(N5CCC(O)CC5)cn4)c4c3CNC4=O)cnc12 [I-135, 7-[[5-(4-hydroxy-1-piperidyl)-2-pyridyl]amino]-4-(8-methylimidazo [1,2-a]pyridin-3-yl)isoindolin-1-one]
29 | < 100 nM | COc1ccn2c(-c3ccc(Nc4ccc(N5CCC(O)CC5)cn4)c4c3CNC4=O)cnc2c1 [I-164, 7-[[5-(4-hydroxy-1-piperidyl)-2-pyridyl]amino]-4-(7-methoxylmidazo[1,2-a]pyridin-3-yl)isoindolin-1-one]
30 | < 100 nM | Cn1ccc2c(-c3ccc(Nc4ccc(N5CCC(O)CC5)cn4)c4c3CNC4=O)cnc-2n1 [I-426, 7-((5-(4-hydroxy-piperidin-1-yl)pyridin-2-yl)amino)-4-(2-methyl-2H-pyrrolo[2,3-c]pyridazin-5-yl)isoindolin-1-one]
31 | < 100 nM | CN1CCN(c2cccc(Nc3ccc(-c4cnc5cc(F)ccn45)c4c3C(=O)NC4)n2)CC1 [I-230, 4-(7-fluoroimidazo [1,2-a]pyridin-3-yl)-7-[[6-(4-methylpiperazin-1-yl)-2-pyridyl)amino] isoindolin-1-one]
32 | < 100 nM | O=C1NCc2c(-c3cnc4cc(F)ccn34)ccc(Nc3ccc(N4CCO[C@@H](CO)C4)cn3)c21 [I-450, 4-(7-fluoroimidazo [1,2-a]pyridin-3-yl)-7-[[5-[(2R)-2-(hydroxymeth-yl)morpholin-4-yl]-2-pyridyl]amino] isoindolin-1-one]
